Source: patent US7943330B2, “Tailored glycoproteomic methods for the sequencing, mapping and identification of cellular glycoproteins” (Academia Sinica, priority 2007, dated 2011)

Tests used:
[1] = system: Hep3B hepatocellular carcinoma cells; experiment: Confocal microscopy of intracellular labeling of alkynyl-tagged glycans; assay type: cell-based, Human; conditions: 3-day incubation; biotin probe and fluorogenic coumarin probe; compared with the Fucyne result
Procedure: (§1) To visualize the localization of alkyne-tagged glycans, adherent cells were grown on slides in the presence or absence of alkynyl sugar analogs or precursors. After a 3-day-incubation, cells attached to the slides are fixed, permeabilized, and labeled with either a biotin probe or fluorogenic coumarin probe for fluorescent signal analysis with confocal microscopy, as shown in FIG. 3C. For comparison, samples are also stained with wheat germ agglutinin (WGA, a Golgi marker).
(§2) Fluorescent Labeling in Cells: Human hepatocellular carcinoma cells (Hep3B) or breast adenocarcinoma cells (MCF7) were seeded onto six-well plates (3×10^5/2 ml per well) containing glass coverslips, and were cultivated in 10% FCS/DMEM or 10% FCS/RPMI medium 1640. Growth medium was supplemented with a control sugar (200 micromolar Fuc or 25 micromolar ManNAc) and an alkynyl-modified sugar (Fucyne or ManNAcyne at the same concentration as control sugars). After growing for 3 days, cells on coverslips were fixed and permeabilized with acetone for 10 min, then subjected to the probe labeling reaction: 0.1 mM biotin probe or fluorogenic coumarin probe, 0.1 mM Tris-triazoleamine catalyst, 1 mM CuSO4, 2 mM sodium ascorbate, in PBS, at room temperature for 30 min. Subsequently, the fixed and labeled cells were rinsed with PBS and stained with Alexa Fluor 594-conjugated WGA lectin (2 micrograms/ml in 5% BSA/PBS) and/or fluorescein-conjugated streptavidin (2 micrograms/ml in 5% BSA/PBS) at room temperature for 30 min. Hoechst 33342 (10 microgram/ml in PBS) was used to stain nuclei. Fluorescent images were captured by Bio-Rad (Carl Zeiss) Radiance 2100 Rainbow laser scanning confocal microscopy system.

[2] = system: cell extracts (soluble lysate fractions); experiment: SDS/PAGE, Western blot and fluorescence detection of labeled glycoproteins in cell extracts; assay type: cell-based; conditions: for signal by Western blot or fluorescence: control sugars processed under the same click condition; for biotin-labeling signal of proteins by Western blot: lysate clicked with biotin probe, mouse anti-biotin MAb, 200 micromolar Fucyne, 25 micromolar ManNAcyne, 3 days
Procedure: Immunoblotting (IB) and immunoprecipitation (IP): Cells were seeded at 3×10^6/8 ml per 10-cm dish and treated with control and test sugars (200 micromolar Fuc vs. Fucyne or 25 micromolar ManNAc vs. ManNAcyne) in growth medium at 37° C. After 3 days, cell extracts were prepared by resuspending the cells in 1 ml of lysis buffer (1% Nonidet P-40/150 mM NaCl/protease inhibitor/100 mM sodium phosphate, pH 7.5). Protein extract (1 mg/ml) was labeled for 1 h at room temperature (0.1 mM biotin probe, or fluorogenic coumarin probe, 0.1 mM tris-triazoleamine catalyst, 1 mM CuSO4, and 2 mM sodium ascorbate, in PBS; the azido rhodamine probe was a gift from Benjamin F. Cravatt, The Scripps Research Institute). Labeled protein lysate was resolved by SDS/PAGE. For immunoblotting of biotin-labeled glycoproteins, electrophoresed proteins were transferred onto PVDF membranes, blocked for 20 min with SuperBlock® Blocking Buffer. Blots were either probed for 1 h with anti-biotin MAb (1 microgram/ml), and incubated with peroxidase-conjugated goat anti-mouse IgG (1:7,500 dilution) for 30 min; or probed for 1 h with peroxidase-conjugated anti-biotin Ab (Calbiochem)(1:5000 in SuperBlock). Each step was followed by a wash with 0.02% Tween 20/PBS (PBST). Signal was developed with SuperSignal Chemiluminescent Substrate and detected by exposure to x-ray film. For detecting the coumarin-labeled glycoproteins, gels were examined under 365 nm UV light with a 535+/−50 nm filter. Images were taken by using a BioDoc-It imaging system (UVP). Rhodamine gels were analyzed as described (Speers A E, Cravatt B F (2004) Chem Biol 11:535-546).

Jurkat cells = experiment: Flow cytometry of cell-surface CuAAC labeling of alkynyl-tagged glycans; assay type: cell-based; conditions: for cell-surface fluorescent labeling: CuAAC with 3-azido-7-hydroxycoumarin probe
Procedure: Cell culture: Breast cancer MCF-7 and Jurkat cells were cultivated (2×10^6/10 ml) in RPMI 1640 medium (Invitrogen) supplemented with 10% FCS. Peracetylated alkynyl sugars Fucyne (200 uM) and ManNAcyne (25 uM) or native control sugars ManNAc for 1 to 3 days at 37° C.
Flow cytometry analysis: Cells were harvested, washed with 0.1% FCS/PBS, and resuspended (10^6 cells for Jurkat cells; 3×10^5 cells for other cells) in 100 microliters of click reaction solution (0.1 mM biotin probe, 0.1 mM Tris-triazoleamine catalyst, 0.1 mM CuSO4/0.5 mM sodium ascorbate, in PBS). The reaction was incubated at room temperature for 30 min, and then the cells were washed twice with 0.1% FCS/PBS. Cells treated with biotin probe were subsequently stained with fluorescein-conjugated streptavidin (0.5 microgram per sample in 50 microliters of 1% FCS/PBS) for 30 min at 4° C., and washed three times with 1% FCS/PBS. Data were acquired by BD LSR II with FACSDiva software, and were analyzed by CellQuestPro software (BD Biosciences).

cells = experiment: Cell toxicity of sugar analogs at the levels used for metabolic incorporation; assay type: cell-based; conditions: compared with azido Fuc analogs of previous approaches; 200 μM fucose precursors, 25 μM sialic acid precursors
Procedure: In an exemplary implementation of the MOE method disclosed herein, an appropriate cell growth medium is supplemented with a peracetylated version of the CuAAC competent sugars, 25 μM for sialic acid precursors and 200 μM for fucose precursors (although peracetylation increases cellular uptake of sugars, the acetate groups are cleaved by esterases before it is converted to the nucleotide-sugar donor and incorporated into emerging glycans via glycosyltransferases). As shown by the biosynthetic pathways in FIG. 1, the ManNAc derivatives feed directly into de novo synthesis of NeuAc-CMP, whereas, fucose derivatives are incorporated through a salvage pathway for the synthesis of Fuc-GDP. For labeling, the alkyne-tagged cellular glycans, cells and/or cell lysates are treated with an appropriate CuAAC probe (depicted as 6-8 in FIG. 2). Overall, CuAAC is well-suited for functionalizing cellular glycans since it may be performed in aqueous environments, with high chemoselectively, to form stable 1,2,3-triazoles in nearly quantitative yield, starting from inconspicuous and inert azide or alkyne reaction partners. In conjunction the triazole ligand, CuAAc reactions can be executed under very mild and biocompatible conditions, requiring ambient temperature and low reactant concentrations. […] CuAAC is well-suited for end-point analysis, such as flow cytometry and glycoproteomic purposes. […]

[3] = system: MCF7 (breast adenocarcinoma) cells; experiment: Confocal microscopy of intracellular labeling of alkynyl-tagged glycans; assay type: cell-based, Human; conditions: 3-day incubation, biotin probe and fluorescein-conjugated streptavidin, overlaps with WGA (Golgi) signal
Procedure: as §1, §2

[4] = system: plexin B2 in A549 mock, FucT4 and FucT6 cells; experiment: Incorporation of alkynyl fucose into plexin B2 glycans (IP, on-membrane click reaction, streptavidin blot); assay type: cell-based; conditions: alkynyl fucose-treated mock, stronger in FucT4/6-overexpressing cells, no signal without treatment
Procedure: Total proteins were extracted from untreated or alkynyl fucose-treated mock control, FucT4 and FucT6 stable cell lines. Proteins ([…]) were dissolved in 500 ml IP buffer (1% NP-40, 150 mM NaCl, 10% glycerol, 50 mM HEPES, pH 7.5 and 1×EDTA-free protease inhibitor cocktail) and precleared with 25 ml protein G beads (GE Healthcare) at 4° C. for 1 h. Precleared proteins extracts were then incubated with 3 mg anti-plexin B2 antibody/25 ml protein G beads at 4° C. for 1 h for overnight. Immunoprecipitates were subjected to SDS-PAGE and the proteins were transferred to PVDF membrane. After blocking with 5% BSA/PBST (0.1% Tween 20/PBS) for 1 h and wash with PBST and PBS sequentially, the protein-side of PVDF membrane was faced down to immerse in click reaction mixture (0.1 mM azido biotin, 0.1 mM Tris-triazoleamine catalyst, 1 mM CuSO4, 2 mM sodium ascorbate; 1 ml for a blot from a mini-gel) and incubated at room temperature for 1 h. After wash with PBST twice, the membrane was probed with peroxidase-conjugated streptavidin for biotin tags on blots.
Comparative profiling of fucosylated N-linked glycoproteins using the GIDmap method disclosed herein was conducted in lung cancer cell line A549 over-expressing either fucosyltransferases (FucT) 4 or 6. […] The biotin signals were then detected by immunoblotting with peroxidase-conjugated streptavidin. […]

| Molecule | intracellular labeling signal (confocal microscopy) [1] | signal by Western blot or fluorescence [2] | cell-surface labeling signal (Jurkat cells; CuAAC-labeled with biotin, detected by fluorescein-conjugated streptavidin, vs control ManNAc) | toxicity to cells (cells) | biotin-labeling signal of proteins by Western blot [2] | cell-surface fluorescent labeling (Jurkat cells) | intracellular labeling signal (confocal microscopy) [3] | biotin signal of immunoprecipitated plexin B2 after on-membrane CuAAC [4] |
| --- | --- | --- | --- | --- | --- | --- | --- | --- |
| CC(=O)N[C@@H]1C(O)O[C@H](CO)[C@@H](O)[C@@H]1O (stereo partly shown) [ManNAc, N-acetylmannosamine, reference compound] | very low background | little to no signal |  |  |  |  |  |  |
| C#CCCC(=O)N[C@@H]1C(OC(C)=O)O[C@H](COC(C)=O)[C@@H](OC(C)=O)[C@@H]1OC(C)=O (stereo partly shown) [ManNAcyne, 1,3,4,6-tetra-O-acetyl-N-4-pentynoylmannosamine] |  |  | specific signal on the cell surface | greatly reduced toxicity | specific biotin-labeling signals were detected |  |  |  |
| 1,2,3,4-tetraacetyl alkynyl fucose [Fucyne] |  |  |  | greatly reduced toxicity | specific biotin-labeling signals were detected | significant fluorescent labeling | strong punctuate-labeling signal | positive signals |
| C[C@H](O)[C@@H](O)[C@@H](O)[C@H](O)C=O [Fuc, Fucose, reference compound] |  | little to no signal |  |  |  | very low background signals | very low background |  |
